Data from PubChem BioAssay (NCI).
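GI50: concentration for 50% inhibition of growth. TGI marks complete inhibition of growth.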

Key:
Assay in all cases: NCI anticancer screen, dose series, 384-well format
IGROV1 ovarian = system: IGROV1 ovarian
SK-OV-3 ovarian = system: SK-OV-3 ovarian
DU-145 prostate = system: DU-145 prostate
RXF 393 renal = system: RXF 393 renal
NCI-H23 lung = system: NCI-H23 lung
SK-MEL-5 melanoma = system: SK-MEL-5 melanoma
SW-620 colon = system: SW-620 colon
EKVX NSCLC = system: EKVX NSCLC
MDA-MB-435 melanoma = system: MDA-MB-435 melanoma
MDA-MB-231 breast = system: MDA-MB-231 breast
SF-268 CNS = system: SF-268 CNS
SF-539 CNS = system: SF-539 CNS
MCF7 breast = system: MCF7 breast
786-0 renal = system: 786-0 renal
NCI/ADR-RES ovarian = system: NCI/ADR-RES ovarian
UACC-257 melanoma = system: UACC-257 melanoma
M14 melanoma = system: M14 melanoma
SNB-75 CNS = system: SNB-75 CNS
NCI-H522 lung = system: NCI-H522 lung
SNB-19 CNS = system: SNB-19 CNS
TK-10 renal = system: TK-10 renal
SF-295 CNS = system: SF-295 CNS
K-562 leukemia = system: K-562 leukemia
NCI-H322M lung = system: NCI-H322M lung
A549 NSCLC = system: A549 NSCLC
MALME-3M melanoma = system: MALME-3M melanoma
HT29 colon = system: HT29 colon
MOLT-4 leukemia = system: MOLT-4 leukemia
LOX IMVI melanoma = system: LOX IMVI melanoma
CAKI-1 renal = system: CAKI-1 renal
MDA-MB-468 breast = system: MDA-MB-468 breast
SK-MEL-28 melanoma = system: SK-MEL-28 melanoma
HS 578T breast = system: HS 578T breast
OVCAR-3 ovarian = system: OVCAR-3 ovarian
NCI-H460 NSCLC = system: NCI-H460 NSCLC
OVCAR-4 ovarian = system: OVCAR-4 ovarian
HOP-62 NSCLC = system: HOP-62 NSCLC
ACHN renal = system: ACHN renal
A498 renal = system: A498 renal
OVCAR-8 ovarian = system: OVCAR-8 ovarian
HCT-116 colon = system: HCT-116 colon
KM12 colon = system: KM12 colon
PC-3 prostate = system: PC-3 prostate
HCC-2998 colon = system: HCC-2998 colon
COLO 205 colon = system: COLO 205 colon
RPMI-8226 leukemia = system: RPMI-8226 leukemia
HL-60(TB) leukemia = system: HL-60(TB) leukemia
SN12C renal = system: SN12C renal
UACC-62 melanoma = system: UACC-62 melanoma
HOP-92 NSCLC = system: HOP-92 NSCLC
HCT-15 colon = system: HCT-15 colon
NCI-H226 lung = system: NCI-H226 lung
T-47D breast = system: T-47D breast
U251 glioblastoma = system: U251 glioblastoma
OVCAR-5 ovarian = system: OVCAR-5 ovarian
UO-31 renal = system: UO-31 renal
BT-549 breast = system: BT-549 breast
CCRF-CEM leukemia = system: CCRF-CEM leukemia

C[C@@H]1CN(Cc2ccc(F)cc2)[C@@H](C)CN1C(=O)c1cc2c(C(=O)C(=O)N(C)C)cn(C)c2cc1Cl
GI50 (IGROV1 ovarian): 14.2 µM
TGI (IGROV1 ovarian): 28.3 µM
GI50 (SK-OV-3 ovarian): 19.6 µM
TGI (SK-OV-3 ovarian): 42.7 µM
GI50 (DU-145 prostate): 19.1 µM
TGI (DU-145 prostate): 37.8 µM
GI50 (RXF 393 renal): 14.9 µM
TGI (RXF 393 renal): 28.9 µM
GI50 (NCI-H23 lung): 20.1 µM
TGI (NCI-H23 lung): 44.5 µM
GI50 (SK-MEL-5 melanoma): 7.47 µM
TGI (SK-MEL-5 melanoma): 20.5 µM
GI50 (SW-620 colon): 18 µM
TGI (SW-620 colon): 40.9 µM
GI50 (EKVX NSCLC): 15.3 µM
TGI (EKVX NSCLC): 35 µM
GI50 (MDA-MB-435 melanoma): 15.5 µM
TGI (MDA-MB-435 melanoma): 31.1 µM
GI50 (MDA-MB-231 breast): 23.2 µM
TGI (MDA-MB-231 breast): 61.9 µM
GI50 (SF-268 CNS): 2.33 µM
TGI (SF-268 CNS): 14.7 µM
GI50 (SF-539 CNS): 17.2 µM
TGI (SF-539 CNS): 31.3 µM
GI50 (MCF7 breast): 10.8 µM
TGI (MCF7 breast): 24.1 µM
GI50 ([…]-0 renal): 13.6 µM
TGI (786-0 renal): 28.5 µM
GI50 (NCI/ADR-RES ovarian): 18.3 µM
TGI (NCI/ADR-RES ovarian): 41.6 µM
GI50 (UACC-257 melanoma): 19.7 µM
TGI (UACC-257 melanoma): 34.1 µM
GI50 (M14 melanoma): 14.1 µM
TGI (M14 melanoma): 28.8 µM
GI50 (SNB-75 CNS): 15.7 µM
TGI (SNB-75 CNS): 33.8 µM
GI50 (NCI-H522 lung): 20.5 µM
TGI (NCI-H522 lung): 38.1 µM
GI50 (SNB-19 CNS): 24.1 µM
TGI (SNB-19 CNS): 58.1 µM
GI50 (TK-10 renal): 23.8 µM
TGI (TK-10 renal): 52.3 µM
GI50 (SF-295 CNS): 16.4 µM
TGI (SF-295 CNS): 31.9 µM
GI50 (K-562 leukemia): 7.01 µM
TGI (K-562 leukemia): 20.8 µM
GI50 (NCI-H322M lung): 17.5 µM
TGI (NCI-H322M lung): 35.3 µM
GI50 (A549 NSCLC): 13.8 µM
TGI (A549 NSCLC): 35.5 µM
GI50 (MALME-3M melanoma): 18.3 µM
TGI (MALME-3M melanoma): 32.6 µM
GI50 (HT29 colon): 12.7 µM
TGI (HT29 colon): 27 µM
GI50 (MOLT-4 leukemia): 12.9 µM
TGI (MOLT-4 leukemia): 25.7 µM
GI50 (LOX IMVI melanoma): 14.8 µM
TGI (LOX IMVI melanoma): 28.5 µM
GI50 (CAKI-1 renal): 15.4 µM
TGI (CAKI-1 renal): 41 µM
GI50 (MDA-MB-468 breast): 2.8 µM
TGI (MDA-MB-468 breast): 17.4 µM
GI50 (SK-MEL-28 melanoma): 16.1 µM
TGI (SK-MEL-28 melanoma): 31.6 µM
GI50 (HS 578T breast): 12.7 µM
TGI (HS 578T breast): 26.5 µM
GI50 (OVCAR-3 ovarian): 17.8 µM
TGI (OVCAR-3 ovarian): 32.1 µM
GI50 (NCI-H460 NSCLC): 12.7 µM
TGI (NCI-H460 NSCLC): 26.9 µM
GI50 (OVCAR-4 ovarian): 22.4 µM
TGI (OVCAR-4 ovarian): 46.9 µM
GI50 (HOP-62 NSCLC): 10.8 µM
TGI (HOP-62 NSCLC): 24.1 µM
GI50 (ACHN renal): 14.4 µM
TGI (ACHN renal): 43 µM
GI50 (A498 renal): 13.6 µM
TGI (A498 renal): 29.2 µM
GI50 (OVCAR-8 ovarian): 17.9 µM
TGI (OVCAR-8 ovarian): 38.9 µM
GI50 (HCT-116 colon): 16.1 µM
TGI (HCT-116 colon): 30.5 µM
GI50 (KM12 colon): 14.8 µM
TGI (KM12 colon): 29.7 µM
GI50 (PC-3 prostate): 18.6 µM
TGI (PC-3 prostate): 35 µM
GI50 (HCC-2998 colon): 17.1 µM
TGI (HCC-2998 colon): 31.5 µM
GI50 (COLO 205 colon): 10.9 µM
TGI (COLO 205 colon): 23.7 µM
GI50 (RPMI-8226 leukemia): 12.2 µM
TGI (RPMI-8226 leukemia): 24.7 µM
GI50 (HL-60(TB) leukemia): 20.7 µM
TGI (HL-60(TB) leukemia): 35.1 µM
GI50 (SN12C renal): 15.8 µM
TGI (SN12C renal): 31.7 µM
GI50 (UACC-62 melanoma): 8.17 µM
TGI (UACC-62 melanoma): 20.9 µM
GI50 (HOP-92 NSCLC): 17.1 µM
TGI (HOP-92 NSCLC): 31.2 µM
GI50 (HCT-15 colon): 19.8 µM
TGI (HCT-15 colon): 39.3 µM
GI50 (NCI-H226 lung): 10.3 µM
TGI (NCI-H226 lung): 23.9 µM
GI50 (T-47D breast): 1.99 µM
TGI (T-47D breast): 17.2 µM
GI50 (U251 glioblastoma): 16.4 µM
TGI (U251 glioblastoma): 30.7 µM
GI50 (OVCAR-5 ovarian): 19.9 µM
TGI (OVCAR-5 ovarian): 52.1 µM
GI50 (UO-31 renal): 15.1 µM
TGI (UO-31 renal): 29.6 µM
GI50 (BT-549 breast): 17.7 µM
TGI (BT-549 breast): 31.8 µM
GI50 (CCRF-CEM leukemia): 15.3 µM
TGI (CCRF-CEM leukemia): 28.8 µM
